Assay results published in US20120122787A1, “METHODS FOR TREATING POLYCYSTIC KIDNEY DISEASE (PKD) OR OTHER CYST FORMING DISEASES” (priority 2009, published 2012).

Legend:
[1] = system: PCK rat (a recessive PKD model); conditions: Wang et al., 2008; cited from earlier work
[2] = system: HDAC5 phosphorylation (Ser489); assay: HDAC5 phosphorylation immunoblot in MEK cells without or with fluid flow; format: cell-based, mouse; conditions: for fluid flow-induced HDAC5 phosphorylation: fluid flow 0.2 ml/min, GÖ6983 10 μM, GdCl3 20 μM; for HDAC5 phosphorylation in the absence of fluid flow: no fluid flow, PMA 100 nM, ionomycin 1 μM, phospho-specific antibody
Procedure: (§1) Confluent mouse embryonic kidney (MEK) cells were cultured for 1-2 additional days in the absence of interferon-γ to induce optimal differentiation (Nauli et al., 2003). Hanks' Balanced Salt Solution with 20.0 mM HEPES buffer (pH 7.4) and 1% bovine serum albumin was used for calcium imaging and cell culture media for the other experiments. Fluid flow was applied at 0.2 ml/min using a peristaltic pump in 35 mm dishes or 6-well plates, with tubings connected through two 18 Gauge needles at opposing sides of a well (FIG. 9A). Time-lapse imaging was performed on an Axiovert 200M inverted microscope (Karl Zeiss Microlmaging Inc., Thornwood, N.Y.) equipped with a 20×/0.8 NA Plan-Apochromat objective, a Pecon XL-3 environmental chamber (PeCon GmbH, Erbach, Germany) and an AxioCam HSm r1.1 digital monochrome camera (Karl Zeiss). In drug treatments, […] (Sigma-Aldrich, St. Louis, Mo.) was used at 100 nM, GÖ6983 (Sigma-Aldrich) at 10 μM, ionomycin (Sigma-Aldrich) at 1 μM, and GdCl3 (Sigma-Aldrich) at 20 μM.
Whether fluid flow across monolayers of MEK cells led to endogenous HDAC5 phosphorylation was determined using a phospho-specific antibody against HDAC5 Ser489 site (equivalent of Ser498 of human HDAC5) (Bossuyt et al., 2008). While HDAC5 phosphorylation level was low prior to fluid flow onset, an increase in phosphorylation was observed 30 minutes after the start of fluid flow and maintained for several hours thereafter (FIGS. 1A and 1B). The increase in HDAC5 phosphorylation was accompanied by an increase in the level of total HDAC5 (FIGS. 12A, C), consistent with the flow-induced gene expression of HDAC5 observed in the microarray analysis (Table 2). […] By contrast, HDAC5 phosphorylation was induced by the calcium ionophore, ionomycin, in the absence of fluid flow (FIG. 1D, see also FIG. 20 for the quantification of HDAC5 phosphorylation levels under various conditions). Treatment with PMA, an activator of protein kinase C(PKC), stimulated HDAC5 phosphorylation in the absence of fluid flow, while the PKC inhibitor GÖ6983 inhibited flow-induced HDAC5 phosphorylation (FIGS. 1D and 20).

HDAC5 nuclear export = assay: HDAC5-GFP nuclear export in transfected MEK cells; format: cell-based, mouse; conditions: for fluid flow-induced HDAC5 nuclear export: GÖ6983 10 μM, GdCl3
Procedure: as §1
To determine whether HDAC5 was exported from the nucleus in response to fluid flow, FLAG-MEF2C and HDAC5-GFP constructs were co-transfected into Pkd1^+/+ and Pkd1^−/− MEK cells, and both tagged proteins correctly localized to the nucleus. Stimulation of MEK cells with fluid flow for 30 min led to translocation of HDAC5-GFP, but not FLAG-MEF2C, from the nucleus in Pkd1^+/+. MEK cells, but not in Pkd1^−/− MEK cells (FIG. 2A). […] By contrast, a HDAC5-GFP mutant lacking the 14-3-3 phosphorylation sites (HDAC5^S250/489A) was not exported (FIG. 2C), consistent with a requirement for phosphorylation of these regulatory sites in fluid flow-induced nuclear export of HDAC5. HDAC5 nuclear export also failed in Pkd1^−/− MEK cells, cells treated with GdCl3 (FIG. 2C), or the PKC inhibitor GÖ6983, while treatment with PMA stimulated HDAC5 nuclear exit even without fluid flow (FIG. 2D).

PKD^ws25/− mice = assay: SAHA treatment of PKDws25/− mice (mouse model of PKD); conditions: 4 weeks
Procedure: PKD^ws25/− mice (Wu et al., 1998) were obtained from Albert Einstein College of Medicine (Bronx, N.Y.). PKD^ws25/− mice escape the embryonic lethality of the PKD^−/− phenotype, but recapitulate the human ADPKD phenotype in that they develop cysts early in life (Wu et al., 1998). Eight week old PKD^ws25/− mice (n=15 per group) were treated with 100 mg/kg vorinostat (SAHA) or vehicle (Veh). Animals were dosed daily by i.p. for 5 days followed by 2 days off, for a total of 4 weeks. […] At the end of study, animals were sacrificed and blood taken for analysis of blood urea nitrogen (BUN) levels using the manufacturer's protocol for Hitachi Urea Nitrogen (BUN) Reagent Set (Pointe Scientific, Inc., Canton, Mich.).

Pkd2−/− embryos = assay: TSA injection of pregnant Pkd2+/- mice, histology of E18.5 embryonic kidneys; format: in vivo, mouse
Procedure: (§2) Pkd2^+/− mice were originally provided by S. Somlo (Yale University, New Haven, Conn.) and Hdac5^−/− mice by E. Olson (University of Texas Southwestern Medical Center, Dallas, Tex.). To obtain embryos of various genotypes, the mutant mice were paired and the pregnant females were sacrificed on 18.5 DPC to collect embryonic kidneys. For TSA treatment experiments pregnant Pkd2^+/− females paired with Pkd2^+/− males were subcutaneously injected daily, from 10.5 dpc to 18.5 dpc with 0.5 μg TSA (Biomol, Enzo Life Sciences Inc., Farmingdale, N.Y.) per gram mouse body weight or DMSO (solvent of TSA) in phosphate buffered saline (PBS). At the end of this treatment, females were sacrificed and embryonic kidneys were collected.
(§3) To test further the possibility that reducing the activity of HDAC5 could suppress cyst formation in Pkd2^−/− embryos, trichostatin A (TSA), a chemical inhibitor against type I and II HDACs (Drummond et al., 2005), was injected into pregnant Pkd2+/− female mice from 10.5 dpc after mating with Pkd2+/− males, and embryonic kidneys were analyzed at 18.5 dpc.

MEF2C = assay: Immunoblot of MEF2C in Pkd2−/− embryonic kidneys from TSA-treated mothers; format: in vivo, mouse; conditions: TSA-treated vs DMSO-treated mothers
Procedure: as §2, §3

MIM = assay: Immunoblot of MIM in Pkd2−/− embryonic kidneys from TSA-treated mothers; format: in vivo, mouse; conditions: TSA-treated vs DMSO-treated mothers
Procedure: as §2, §3

## 1-deamino-8-D-arginine vasopressin [dDAVP]
[1]
  effect on cystic disease: aggravated cystic disease

## [Cl][Gd]([Cl])[Cl] [GdCl3]
[2]
  fluid flow-induced HDAC5 phosphorylation: blocked
HDAC5 nuclear export
  fluid flow-induced HDAC5 nuclear export: failed

## COc1ccc2c(c1)c(C1=C(c3c[nH]c4ccccc34)C(=O)NC1=O)cn2CCCN(C)C [GÖ6983]
[2]
  fluid flow-induced HDAC5 phosphorylation: inhibited
HDAC5 nuclear export
  fluid flow-induced HDAC5 nuclear export: failed

## CCCCCCCCCCCCCC(=O)O[C@@H]1[C@@H](C)[C@@]2(O)[C@@H](C=C(CO)C[C@]3(O)C(=O)C(C)=C[C@@H]23)[C@@H]2C(C)(C)[C@]12OC(C)=O [PMA, 12-myristate 13-acetate]
[2]
  HDAC5 phosphorylation in the absence of fluid flow: stimulated
HDAC5 nuclear export; no fluid flow, 100 nM PMA
  HDAC5 nuclear exit without fluid flow: stimulated

## O=C(CCCCCCC(=O)Nc1ccccc1)NO [SAHA, suberoylanilide hydroxamic acid]
PKD^ws25/− mice; 100 mg/kg i.p. daily 5 days on, 2 days off, compared to vehicle
  blood urea nitrogen (BUN) levels: significantly lower
PKD^ws25/− mice; 100 mg/kg i.p., n=15 per group
  animals lost: one
PKD^ws25/− mice; 100 mg/kg i.p., kidney images vs control
  renal tubular epithelial morphology: well organized, nearly normal epithelial morphology

## CC(/C=C/C(=O)NO)=C\[C@@H](C)C(=O)c1ccc(N(C)C)cc1 [TSA, trichostatin A]
Pkd2−/− embryos; 0.5 μg TSA per gram body weight s.c. daily to mothers 10.5-18.5 dpc, compared to DMSO-injected mothers
  kidney cyst formation in Pkd2−/− embryos: drastically reduced
Pkd2−/− embryos; Pkd2+/+ embryos from TSA-injected mothers
  morphology of renal tubules in Pkd2+/+ embryonic kidneys: did not affect
Pkd2−/− embryos; TSA-treated mothers, as opposed to flat morphology of Pkd2−/− cyst lining cells
  morphology of cyst lining cells in Pkd2−/− kidneys: more normal cuboidal morphology
MEF2C
  enhancement of expression of MEF2C: 4 fold
MIM
  expression of MIM: drastically increased

## C[C@H](CCC(=O)O)C[C@H](C)C[C@H](C)C(=O)/C=C(\O)[C@H](C)C[C@H](C)C/C=C/[C@@H](C)[C@@H](O)[C@@H](C)[C@@H](O)C[C@@H]1CC[C@@](C)([C@H]2CC[C@@](C)([C@@H](C)O)O2)O1 [ionomycin]
[2]
  HDAC5 phosphorylation in the absence of fluid flow: induced
